Source: patent US6358885B1, “Substituted phenylheterocyclic herbicides” (Mississippi State University, priority 1992, dated 2002)

Columns and labels:
Assay in all cases: Test B preemergence/postemergence greenhouse plant response rating 0 to 10
[1] = system: barley; format: in vivo, Hordeum vulgare; conditions: for Plant response rating (0 to 10 scale), Barley: Rate 100 g/ha; for Plant response rating, Barley: Rate 400 g/ha, 0 to 10 scale
Source text: (§1) Seeds of barley (Hordeum vulgare), barnyardgrass (Echinochloa crus-galli), bedstraw (Galium aparine), blackgrass (Alopecurus myosuroides), […] (Bromus secalinus), chickweed (Stellaria media), cocklebur (Xanthium pensylvanicum), corn (Zea mays), cotton (Gossypium hirsutum), crabgrass (Digitaria spp.), giant foxtail (Setaria faberii), lambsquarters (Chenopodium album), morningglory (Ipomoea hederacea), rape (Brassica napus), rice (Oryza sativa), sorghum (Sorghum bicolor), soybean (Glycine max), sugar beet (Beta vulgaris), velvetleaf (Abutilon theophrasti), wheat (Triticum aestivum), wild buckwheat (Polygonum convolvulus), and wild oat (Avena fatua) and purple nutsedge. (Cyperus rotundus) tubers were planted and treated preemergence with test chemicals dissolved in a non-phytotoxic solvent. At the same time, these crop and weed species were also treated with postemergence applications of test chemicals. Plants ranged in height from two to eighteen cm (one to four leaf stage) for postemergence treatments. Treated plants and controls were maintained in a greenhouse for twelve to sixteen days, after which all species were compared to controls and visually evaluated. […] A dash (-) response means no test result.

[2] = system: sugar beet; format: in vivo, Beta vulgaris; conditions: for Plant response rating (0 to 10 scale), Sugar beet: Rate 100 g/ha; for Plant response rating, Sugar beet: Rate 400 g/ha, 0 to 10 scale
Source text: as §1

[3] = system: barnyardgrass; format: in vivo, Echinochloa crus-galli; conditions: for Plant response rating (0 to 10 scale), Barnyardgrass: Rate 100 g/ha; for Plant response rating, Barnyardgrass: Rate 400 g/ha, 0 to 10 scale
Source text: as §1

[4] = system: morningglory; format: in vivo, Ipomoea hederacea; conditions: for Plant response rating (0 to 10 scale), Morningglory: Rate 100 g/ha; for Plant response rating, Morningglory: Rate 400 g/ha, 0 to 10 scale
Source text: as §1

[5] = system: crabgrass; format: in vivo, Digitaria spp.; conditions: for Plant response rating (0 to 10 scale), Crabgrass: Rate 100 g/ha; for Plant response rating, Crabgrass: Rate 400 g/ha, 0 to 10 scale
Source text: as §1

[6] = system: cotton; format: in vivo, Gossypium hirsutum; conditions: for Plant response rating (0 to 10 scale), Cotton: Rate 100 g/ha; for Plant response rating, Cotton: Rate 400 g/ha, 0 to 10 scale
Source text: as §1

[7] = system: velvetleaf; format: in vivo, Abutilon theophrasti; conditions: for Plant response rating (0 to 10 scale), Velvetleaf: Rate 100 g/ha; for Plant response rating, Velvetleaf: Rate 400 g/ha, 0 to 10 scale
Source text: as §1

[8] = system: blackgrass; format: in vivo, Alopecurus myosuroides; conditions: for Plant response rating (0 to 10 scale), Blackgrass: Rate 100 g/ha; for Plant response rating, Blackgrass: Rate 400 g/ha, 0 to 10 scale
Source text: as §1

[9] = system: lambsquarters; format: in vivo, Chenopodium album; conditions: for Plant response rating (0 to 10 scale), Lambsquarter: Rate 100 g/ha; for Plant response rating, Lambsquarter: Rate 400 g/ha, 0 to 10 scale
Source text: as §1

[10] = system: soybean; format: in vivo, Glycine max; conditions: for Plant response rating (0 to 10 scale), Soybean: Rate 100 g/ha; for Plant response rating, Soybean: Rate 400 g/ha, 0 to 10 scale
Source text: as §1

[11] = system: sorghum; format: in vivo, Sorghum bicolor; conditions: for Plant response rating (0 to 10 scale), Sorghum: Rate 100 g/ha; for Plant response rating, Sorghum: Rate 400 g/ha, 0 to 10 scale
Source text: as §1

[12] = system: rice; format: in vivo, Oryza sativa; conditions: for Plant response rating (0 to 10 scale), Rice: Rate 100 g/ha; for Plant response rating, Rice: Rate 400 g/ha, 0 to 10 scale
Source text: as §1

[13] = system: wild oat; format: in vivo, Avena fatua; conditions: for Plant response rating (0 to 10 scale), Wild oat: Rate 100 g/ha; for Plant response rating, Wild oat: Rate 400 g/ha, 0 to 10 scale
Source text: as §1

[14] = system: purple nutsedge; format: in vivo, Cyperus rotundus; conditions: for Plant response rating (0 to 10 scale), Nutsedge: Rate 100 g/ha; for Plant response rating, Nutsedge: Rate 400 g/ha, 0 to 10 scale
Source text: as §1

[15] = system: corn; format: in vivo, Zea mays; conditions: for Plant response rating (0 to 10 scale), Corn: Rate 100 g/ha; for Plant response rating, Corn: Rate 400 g/ha, 0 to 10 scale
Source text: as §1

[16] = system: chickweed; format: in vivo, Stellaria media; conditions: for Plant response rating (0 to 10 scale), Chickweed: Rate 100 g/ha; for Plant response rating, Chickweed: Rate 400 g/ha, 0 to 10 scale
Source text: as §1

[17] = system: cocklebur; format: in vivo, Xanthium pensylvanicum; conditions: for Plant response rating (0 to 10 scale), Cocklebur: Rate 100 g/ha; for Plant response rating, Cocklebur: Rate 400 g/ha, 0 to 10 scale
Source text: as §1

[18] = system: cheatgrass; format: in vivo, Bromus secalinus; conditions: for Plant response rating (0 to 10 scale), Cheatgrass: Rate 100 g/ha; for Plant response rating, Cheatgrass: Rate 400 g/ha, 0 to 10 scale
Source text: as §1

[19] = system: rape; format: in vivo, Brassica napus; conditions: for Plant response rating (0 to 10 scale), Rape: Rate 100 g/ha; for Plant response rating, Rape: Rate 400 g/ha, 0 to 10 scale
Source text: as §1

[20] = system: wild buckwheat; format: in vivo, Polygonum convolvulus; conditions: for Plant response rating (0 to 10 scale), Wild buckwheat: Rate 100 g/ha; for Plant response rating, Wild buckwheat: Rate 400 g/ha, 0 to 10 scale
Source text: as §1

[21] = system: giant foxtail; format: in vivo, Setaria faberii; conditions: for Plant response rating (0 to 10 scale), Giant foxtail: Rate 100 g/ha; for Plant response rating, Giant foxtail: Rate 400 g/ha, 0 to 10 scale
Source text: as §1

[22] = system: bedstraw; format: in vivo, Galium aparine; conditions: for Plant response rating (0 to 10 scale), Bedstraw: Rate 100 g/ha; for Plant response rating, Bedstraw: Rate 400 g/ha, 0 to 10 scale
Source text: as §1

[23] = system: wheat; format: in vivo, Triticum aestivum; conditions: for Plant response rating (0 to 10 scale), Wheat: Rate 100 g/ha; for Plant response rating, Wheat: Rate 400 g/ha, 0 to 10 scale
Source text: as §1

Fc1ccc(-c2nc3n(c2Br)CCCC3)c(F)c1 [Compound 7]
Plant response rating (0 to 10 scale), Barley ([1]; POSTEMERGENCE): 2 | Plant response rating, Barley ([1]; POSTEMERGENCE): 3 | Plant response rating (0 to 10 scale), Barley ([1]; PREEMERGENCE): 0 | Plant response rating, Barley ([1]; PREEMERGENCE): 0 | Plant response rating (0 to 10 scale), Sugar beet ([2]; POSTEMERGENCE): 9 | Plant response rating, Sugar beet ([2]; POSTEMERGENCE): 10 | Plant response rating (0 to 10 scale), Sugar beet ([2]; PREEMERGENCE): 0 | Plant response rating, Sugar beet ([2]; PREEMERGENCE): 0 | Plant response rating (0 to 10 scale), Barnyardgrass ([3]; POSTEMERGENCE): 4 | Plant response rating, Barnyardgrass ([3]; POSTEMERGENCE): 6 | Plant response rating (0 to 10 scale), Barnyardgrass ([3]; PREEMERGENCE): 1 | Plant response rating, Barnyardgrass ([3]; PREEMERGENCE): 2 | Plant response rating (0 to 10 scale), Morningglory ([4]; POSTEMERGENCE): 8 | Plant response rating, Morningglory ([4]; POSTEMERGENCE): 9 | Plant response rating (0 to 10 scale), Morningglory ([4]; PREEMERGENCE): 0 | Plant response rating, Morningglory ([4]; PREEMERGENCE): 0 | Plant response rating (0 to 10 scale), Crabgrass ([5]; POSTEMERGENCE): 4 | Plant response rating, Crabgrass ([5]; POSTEMERGENCE): 4 | Plant response rating (0 to 10 scale), Crabgrass ([5]; PREEMERGENCE): 2 | Plant response rating, Crabgrass ([5]; PREEMERGENCE): 6 | Plant response rating (0 to 10 scale), Cotton ([6]; POSTEMERGENCE): 9 | Plant response rating, Cotton ([6]; POSTEMERGENCE): 10 | Plant response rating (0 to 10 scale), Cotton ([6]; PREEMERGENCE): 0 | Plant response rating, Cotton ([6]; PREEMERGENCE): 0 | Plant response rating (0 to 10 scale), Velvetleaf ([7]; POSTEMERGENCE): 7 | Plant response rating, Velvetleaf ([7]; POSTEMERGENCE): 9 | Plant response rating (0 to 10 scale), Velvetleaf ([7]; PREEMERGENCE): 1 | Plant response rating, Velvetleaf ([7]; PREEMERGENCE): 5 | Plant response rating (0 to 10 scale), Blackgrass ([8]; POSTEMERGENCE): 3 | Plant response rating, Blackgrass ([8]; POSTEMERGENCE): 4 | Plant response rating (0 to 10 scale), Blackgrass ([8]; PREEMERGENCE): 0 | Plant response rating, Blackgrass ([8]; PREEMERGENCE): 2 | Plant response rating (0 to 10 scale), Lambsquarter ([9]; POSTEMERGENCE): 8 | Plant response rating, Lambsquarter ([9]; POSTEMERGENCE): 9 | Plant response rating (0 to 10 scale), Lambsquarter ([9]; PREEMERGENCE): 0 | Plant response rating, Lambsquarter ([9]; PREEMERGENCE): 6 | Plant response rating (0 to 10 scale), Soybean ([10]; POSTEMERGENCE): 8 | Plant response rating, Soybean ([10]; POSTEMERGENCE): 8 | Plant response rating (0 to 10 scale), Soybean ([10]; PREEMERGENCE): 0 | Plant response rating, Soybean ([10]; PREEMERGENCE): 0 | Plant response rating (0 to 10 scale), Sorghum ([11]; POSTEMERGENCE): 5 | Plant response rating, Sorghum ([11]; POSTEMERGENCE): 6 | Plant response rating (0 to 10 scale), Sorghum ([11]; PREEMERGENCE): 0 | Plant response rating, Sorghum ([11]; PREEMERGENCE): 0 | Plant response rating (0 to 10 scale), Rice ([12]; POSTEMERGENCE): 5 | Plant response rating, Rice ([12]; POSTEMERGENCE): 5 | Plant response rating (0 to 10 scale), Rice ([12]; PREEMERGENCE): 0 | Plant response rating, Rice ([12]; PREEMERGENCE): 0 | Plant response rating (0 to 10 scale), Wild oat ([13]; POSTEMERGENCE): 2 | Plant response rating, Wild oat ([13]; POSTEMERGENCE): 3 | Plant response rating (0 to 10 scale), Wild oat ([13]; PREEMERGENCE): 0 | Plant response rating, Wild oat ([13]; PREEMERGENCE): 0 | Plant response rating (0 to 10 scale), Nutsedge ([14]; POSTEMERGENCE): 1 | Plant response rating, Nutsedge ([14]; POSTEMERGENCE): 2 | Plant response rating (0 to 10 scale), Nutsedge ([14]; PREEMERGENCE): 0 | Plant response rating, Nutsedge ([14]; PREEMERGENCE): 2 | Plant response rating (0 to 10 scale), Corn ([15]; POSTEMERGENCE): 3 | Plant response rating, Corn ([15]; POSTEMERGENCE): 4 | Plant response rating (0 to 10 scale), Corn ([15]; PREEMERGENCE): 0 | Plant response rating, Corn ([15]; PREEMERGENCE): 0 | Plant response rating (0 to 10 scale), Chickweed ([16]; POSTEMERGENCE): 3 | Plant response rating, Chickweed ([16]; POSTEMERGENCE): 3 | Plant response rating (0 to 10 scale), Chickweed ([16]; PREEMERGENCE): 0 | Plant response rating, Chickweed ([16]; PREEMERGENCE): 3 | Plant response rating (0 to 10 scale), Cocklebur ([17]; POSTEMERGENCE): 7 | Plant response rating, Cocklebur ([17]; POSTEMERGENCE): 8 | Plant response rating (0 to 10 scale), Cocklebur ([17]; PREEMERGENCE): 0 | Plant response rating, Cocklebur ([17]; PREEMERGENCE): 0 | Plant response rating (0 to 10 scale), Cheatgrass ([18]; POSTEMERGENCE): 3 | Plant response rating, Cheatgrass ([18]; POSTEMERGENCE): 4 | Plant response rating (0 to 10 scale), Cheatgrass ([18]; PREEMERGENCE): 0 | Plant response rating, Cheatgrass ([18]; PREEMERGENCE): 0 | Plant response rating (0 to 10 scale), Rape ([19]; POSTEMERGENCE): 5 | Plant response rating, Rape ([19]; POSTEMERGENCE): 7 | Plant response rating (0 to 10 scale), Rape ([19]; PREEMERGENCE): 0 | Plant response rating, Rape ([19]; PREEMERGENCE): 0 | Plant response rating (0 to 10 scale), Wild buckwheat ([20]; POSTEMERGENCE): 9 | Plant response rating, Wild buckwheat ([20]; POSTEMERGENCE): 10 | Plant response rating (0 to 10 scale), Wild buckwheat ([20]; PREEMERGENCE): 0 | Plant response rating, Wild buckwheat ([20]; PREEMERGENCE): 3 | Plant response rating (0 to 10 scale), Giant foxtail ([21]; POSTEMERGENCE): 5 | Plant response rating, Giant foxtail ([21]; POSTEMERGENCE): 5 | Plant response rating (0 to 10 scale), Giant foxtail ([21]; PREEMERGENCE): 3 | Plant response rating, Giant foxtail ([21]; PREEMERGENCE): 4 | Plant response rating (0 to 10 scale), Bedstraw ([22]; POSTEMERGENCE): 4 | Plant response rating, Bedstraw ([22]; POSTEMERGENCE): 6 | Plant response rating (0 to 10 scale), Bedstraw ([22]; PREEMERGENCE): 0 | Plant response rating, Bedstraw ([22]; PREEMERGENCE): 2 | Plant response rating (0 to 10 scale), Wheat ([23]; POSTEMERGENCE): 3 | Plant response rating, Wheat ([23]; POSTEMERGENCE): 5 | Plant response rating (0 to 10 scale), Wheat ([23]; PREEMERGENCE): 0 | Plant response rating, Wheat ([23]; PREEMERGENCE): 0
